{"source": "patent US20240092800A1", "about": "“USP13 INHIBITORS AND METHODS OF USE THEREOF” (GEORGETOWN UNIVERSITY, priority 2021, published 2024)", "key": {"human alpha-synuclein": {"test_system": "human alpha-synuclein", "assay": "Alpha-synuclein levels via ELISA in alpha-synuclein-transfected SHSY5Y cells", "type": "cell-based", "conditions": "5 hours, concentration between 1 and 0.1 nM", "method": "(§1) Cell lines, transfection, and treatment.\nAlpha-Synuclein Enzyme-Linked Immunosorbent Assay (ELISA). ELISAs for total human alpha-synuclein (Millipore; Burlington, MA) were conducted using Milliplexed ELISA. Briefly, Xmap technology uses magnetic microspheres that are internally coded with two fluorescent dyes. Through precise combinations of these two dyes, multiple proteins are simultaneously measured within a sample. Each of these spheres is coated with a specific capture antibody. The capture antibody binds to the detection antibody and a reporter molecule, completing the reaction on the surface of the bead.\n(§2) A total of 25 μL soluble protein was incubated overnight at 4° C. with 25 μL of a mixed bead solution. After washing, samples were incubated with 25 μL detection antibody solution for 1.5 hours at room temperature. Streptavidin-phycoerythrin (25 μL) was added to each well containing the 25 μL of detection antibody solution. Samples were then washed and suspended in 100 μL of sheath fluid. Samples were then run on MAGPIX with Xponent software. The median fluorescent intensity (MFI) data were analyzed using a 5-parameter logistic or spline curve-fitting method for calculating analyte concentrations in samples. Specific alpha-synuclein ELISAs were performed on tissue soluble extracts from midbrain lysates in 1XSTEN buffer. The ELISA for USP13 (MyBioSource, Cat # MBS9335287), Human alpha-synuclein (Biolegend, Cat #844101) and specific p-Tau ser396 (Invitrogen, KHB7031) were performed on cell or brain tissue extracts as described above according to manufacturers' protocol."}, "human USP13": {"molecular_target": "T1, human USP13 (Homo sapiens, UniProt Q92995)", "T1 construct": "USP13 activity via ELISA in human SHSY5Y neuroblastoma cells; endogenous in cells; host or cells: human SH-SY5Y neuroblastoma cells (transiently transfected with human wild-type alpha-synuclein, not with USP13)", "T1 sequence (Q92995 1-863)": "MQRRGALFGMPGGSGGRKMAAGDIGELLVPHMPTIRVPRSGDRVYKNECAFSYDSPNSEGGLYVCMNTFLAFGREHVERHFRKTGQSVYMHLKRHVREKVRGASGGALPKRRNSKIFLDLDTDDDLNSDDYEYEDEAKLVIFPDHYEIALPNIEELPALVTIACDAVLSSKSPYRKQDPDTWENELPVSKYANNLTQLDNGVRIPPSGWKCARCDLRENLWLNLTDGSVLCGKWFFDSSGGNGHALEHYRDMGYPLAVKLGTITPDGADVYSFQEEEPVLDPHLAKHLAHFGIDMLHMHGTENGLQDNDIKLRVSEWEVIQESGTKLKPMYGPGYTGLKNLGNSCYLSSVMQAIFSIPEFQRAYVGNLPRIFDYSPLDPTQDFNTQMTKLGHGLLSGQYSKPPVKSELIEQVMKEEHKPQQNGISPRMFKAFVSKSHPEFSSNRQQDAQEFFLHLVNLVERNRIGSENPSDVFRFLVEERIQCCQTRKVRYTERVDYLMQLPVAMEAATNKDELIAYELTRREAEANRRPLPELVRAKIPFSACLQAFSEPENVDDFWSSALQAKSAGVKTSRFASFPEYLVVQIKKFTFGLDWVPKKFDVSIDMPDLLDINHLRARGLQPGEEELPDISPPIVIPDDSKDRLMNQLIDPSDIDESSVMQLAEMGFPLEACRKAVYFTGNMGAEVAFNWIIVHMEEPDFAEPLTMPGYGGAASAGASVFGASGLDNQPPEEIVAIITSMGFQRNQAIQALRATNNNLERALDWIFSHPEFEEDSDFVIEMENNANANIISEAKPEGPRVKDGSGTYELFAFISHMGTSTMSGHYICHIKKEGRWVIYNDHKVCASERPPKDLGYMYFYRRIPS", "assay": "USP13 activity via ELISA in SHSY5Y cells", "type": "cell-based", "conditions": "for IC50: SHSY5Y cell line, estimated with GraphPad Prism, read-out: IC50 to inhibit USP13 activity; for USP13 activity via ELISA: SHSY5Y cells, 5 hours, concentration range of 1 nM-1 mM", "method": "as §1, §2\nStatistical and Data Analysis. All statistical analyses were performed using GraphPad Prism version 5.0 (GraphPad software, Inc, San Diego, CA, USA). Two-tailed student's t-test was used in comparison of means of two groups. Ordinary one-way analysis of variance (ANOVA) followed by Newman-Keuls or Dunnett comparison post hoc tests were used in comparison of means of multiple groups. Asterisks denote actual p-value significances (*<0.05, **<0.01, ***<0.001 and ****<0.0001), and N is the number of animals or the number of independent experiments (cell culture) per group. Unless otherwise indicated, data are expressed as Mean±SD. IC50 to USP13 levels was also estimated using GraphPad Prism version 5.0 (GraphPad software, Inc, San Diego, CA, USA)."}, "[1]": {"test_system": "human SHSY5Y neuroblastoma cells", "assay": "Cell viability by MTT and LDH assays", "conditions": "5 hours, up to 1 mM concentration", "description": "Human SHSY-5Y neuroblastoma cells were cultured in Dulbecco's Modified Eagle's Medium (DMEM) (ThermoFisher Scientific; Waltham, MA) with 10% Fetal Bovine Serum (FBS) (ThermoFisher) and 1% Penicillin-Streptomycin (PenStrep, ThermoFisher) and incubated at 37° C. under atmospheric oxygen concentrations (21%) with 5% CO2. SHSY-5Y cells were cultured in DMEM with Ham's F12 (1:1) (ThermoFisher) with 20% FBS, 1% PenStrep. Cells were plated at a density tailored to reach 70-80% confluence at the beginning of every experiment. SH-SY5Y cells were transiently transfected for 24 hours with human wild-type α-synuclein using Fugene HD transfection reagent (Promega; Madison, WI) before fresh culture media and drug were added.\nCell viability was determined via lactate dehydrogenase assay on culture media, (ThermoFisher) and MTT assay on plated cells (ThermoFisher)."}}, "data": [{"compound": "COC(=O)[C@H](Cc1ccc(O)cc1)Nc1c([N+](=O)[O-])c(=O)oc2ccccc12", "note": "[CL3-514, (S)-Methyl (3-nitro-2-oxo-2H-chromen-4-yl)-tyrosinate]", "values": [{"measurement": "level of alpha-synuclein via ELISA", "setting": "human alpha-synuclein", "value": "significantly reduce the level of alpha-synuclein"}, {"measurement": "IC50", "setting": "human USP13", "value": 68.9, "unit": "nM"}, {"measurement": "USP13 activity via ELISA", "setting": "human USP13", "value": "significantly reduce the activity of human USP13"}, {"measurement": "cell death in two viability assays (MTT and LDH)", "setting": "[1]", "value": "do not cause cell death"}]}, {"compound": "c1ccc(Nc2ccnc3ccsc23)cc1", "note": "[BK50118-A, N-Phenylthieno[3,2-b]pyridin-7-amine]", "values": [{"measurement": "level of alpha-synuclein via ELISA", "setting": "human alpha-synuclein", "value": "significantly reduce the level of alpha-synuclein"}, {"measurement": "IC50", "setting": "human USP13", "value": 26, "unit": "nM"}, {"measurement": "USP13 activity via ELISA", "setting": "human USP13", "value": "significantly reduce the activity of human USP13"}, {"measurement": "cell death in two viability assays (MTT and LDH)", "setting": "[1]", "value": "do not cause cell death"}]}, {"compound": "COC(=O)[C@H](Cc1ccccc1)Nc1c([N+](=O)[O-])c(=O)oc2ccccc12", "note": "[CL3-512, (S)-Methyl (3-nitro-2-oxo-2H-chromen-4-yl)-phenylalaninate]", "values": [{"measurement": "level of alpha-synuclein via ELISA", "setting": "human alpha-synuclein", "value": "significantly reduce the level of alpha-synuclein"}, {"measurement": "IC50", "setting": "human USP13", "value": 1080, "unit": "nM"}, {"measurement": "USP13 activity via ELISA", "setting": "human USP13", "value": "significantly reduce the activity of human USP13"}, {"measurement": "cell death in two viability assays (MTT and LDH)", "setting": "[1]", "value": "do not cause cell death"}]}, {"compound": "Fc1ccc2nccc(Nc3ccccc3)c2c1", "note": "[BK50118-B, 6-Fluoro-N-phenylquinolin-4-amine]", "values": [{"measurement": "level of alpha-synuclein via ELISA", "setting": "human alpha-synuclein", "value": "significantly reduce the level of alpha-synuclein"}, {"measurement": "IC50", "setting": "human USP13", "value": 36.9, "unit": "nM"}, {"measurement": "USP13 activity via ELISA", "setting": "human USP13", "value": "significantly reduce the activity of human USP13"}, {"measurement": "cell death in two viability assays (MTT and LDH)", "setting": "[1]", "value": "do not cause cell death"}]}, {"compound": "Fc1ccc(CNc2ncnc3ccc(F)cc23)cc1", "note": "[Spautin-1, reference compound]", "values": [{"measurement": "IC50", "setting": "human USP13", "value": "600 to 700", "unit": "nM"}]}, {"compound": "Fc1ccc2nccc(NCc3ccccc3)c2c1", "note": "[CL3-499, N-Benzyl-6-fluoroquinolin-4-amine]", "values": [{"measurement": "level of alpha-synuclein via ELISA", "setting": "human alpha-synuclein", "value": "significantly reduce the level of alpha-synuclein"}, {"measurement": "IC50", "setting": "human USP13", "value": 1190, "unit": "nM"}, {"measurement": "USP13 activity via ELISA", "setting": "human USP13", "value": "significantly reduce the activity of human USP13"}, {"measurement": "cell death in two viability assays (MTT and LDH)", "setting": "[1]", "value": "do not cause cell death"}]}]}
